Tested on: CDAHFD-induced late stage NAFLD/NASH in mice
Assay: Benchmark study against Firsocostat and Fenofibrate in CDAHFD-induced late stage NAFLD/NASH
Format: in vivo, C57BL/6J male mice
Settings: QD oral gavage four weeks; TOFA 250 mg/kg, Firsocostat 5 mg/kg, Fenofibrate 50 mg/kg
Method: Six-week-old C57BL/6J male mice were fed with a L-amino acid diet with 60 kcal % fat with 0.1% methionine and no added choline (CDAHFD; Research Diets A06071302i) for eight weeks. Mice were randomly assigned to treatment groups of either a vehicle (control), 250 mg/kg of TOFA, 5 mg/kg of Firsocostat (Gilead Sciences), 50 mg/kg of Fenofibrate, or a combined dose of 5 mg/kg Firsocostat and 50 mg/kg Fenofibrate. All treatments were delivered QD by oral gavage for an additional four weeks. Mice weights and food intake were monitored during the treatment time course. Upon study termination at 12 weeks, liver and serum samples were collected. Serum liver damage biomarkers, ALT and AST, were measured by commercially available kits (abcam 105134 and abcam 105135, respectively). Hepatic and serum triglyceride levels were measured from a commercially available kit (abcam65336). Total RNA was extracted from liver tissues (Qiagen RNeasy kit 74106), and cDNA was prepared (BioRAD iScript™ Reverse Transcription) according to manufacturer's protocols. Quantitative PCR (qPCR) was performed with fast SYBR Green Mix (ThermoFisher A25742) on the QuantStudio6 System (Applied Biosciences). Protein expression levels of liver samples were measured by western blot using antibodies against VLDLR (AF2258, 1:2000), CPT1A (CST12252, 1:1000) and Histone H3 (CST9715, 1:1000). Membranes were developed using a HRP secondary antibody (1:5000) and visualized using an enhanced chemiluminescent HRP substrate (Thermo34577). Additional liver samples were fixed in 4% paraformaldehyde and embedded in paraffin blocks for sectioning and subsequently stained with hematoxylin and eosin (H&E).

COc1ccccc1[C@H](Cn1c(=O)n(C(C)(C)C(=O)O)c(=O)c2c(C)c(-c3ncco3)sc21)OC1CCOCC1 [Firsocostat, reference compound]
serum ALT: decreases | serum AST: decreases
